IC50 data for 19 compounds are collected here from patent US20140011799A1 (Bristol-Myers Squibb Company, priority 2012, published 2014).

As a reminder, the IC50 is the concentration needed to halve the response being measured.

Test [1] concerns the target T1, Endothelial lipase (EL) (Homo sapiens, UniProt Q9Y5X9).
T1 construct: HT-1080 cells that were transformed using RAGE technology (Athersys) to overexpress endogenous EL; endogenous in cells; conditioned medium used
T1 sequence (Q9Y5X9 21-500): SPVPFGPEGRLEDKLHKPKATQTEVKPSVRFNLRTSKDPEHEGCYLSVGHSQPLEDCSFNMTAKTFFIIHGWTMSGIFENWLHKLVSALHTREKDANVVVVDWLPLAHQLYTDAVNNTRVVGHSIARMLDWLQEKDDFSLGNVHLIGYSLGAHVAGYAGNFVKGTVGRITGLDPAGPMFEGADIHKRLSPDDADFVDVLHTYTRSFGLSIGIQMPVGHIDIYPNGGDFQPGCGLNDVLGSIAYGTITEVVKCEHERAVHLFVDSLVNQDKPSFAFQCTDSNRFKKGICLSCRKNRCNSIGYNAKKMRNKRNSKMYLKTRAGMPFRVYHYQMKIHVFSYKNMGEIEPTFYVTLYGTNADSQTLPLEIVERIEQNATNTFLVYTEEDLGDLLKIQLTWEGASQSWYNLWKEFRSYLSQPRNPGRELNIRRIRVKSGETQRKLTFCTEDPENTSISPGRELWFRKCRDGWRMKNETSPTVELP
The test can be described thus: Endothelial lipase (EL) enzymatic assay, fluorescent substrate A10070 in DMPG vesicles. Format: biochemical. Conditions: EL from conditioned media of HT-1080 cells; compound preincubated 30 min at 37° C; read-out: EL IC50. In outline: (§1)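 EL from conditioned medium of HT-1080 cells engineered to overexpress endogenous EL; HL partially purified from conditioned medium of HL-overexpressing COS cells. Enzyme preincubated with compound 30 min at 37° C in 50 mM HEPES pH 8.0, 50 mM NaCl, 1 mM CaCl2; DMPG vesicles carrying FRET substrate (0.11 mole fraction) then added.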

Test [2] has as its target T2, hepatic lipase (HL) (Homo sapiens, UniProt P11150).
T2 construct: made in house; host or cells: COS cells (conditioned medium, partially purified)
T2 sequence (P11150 23-499): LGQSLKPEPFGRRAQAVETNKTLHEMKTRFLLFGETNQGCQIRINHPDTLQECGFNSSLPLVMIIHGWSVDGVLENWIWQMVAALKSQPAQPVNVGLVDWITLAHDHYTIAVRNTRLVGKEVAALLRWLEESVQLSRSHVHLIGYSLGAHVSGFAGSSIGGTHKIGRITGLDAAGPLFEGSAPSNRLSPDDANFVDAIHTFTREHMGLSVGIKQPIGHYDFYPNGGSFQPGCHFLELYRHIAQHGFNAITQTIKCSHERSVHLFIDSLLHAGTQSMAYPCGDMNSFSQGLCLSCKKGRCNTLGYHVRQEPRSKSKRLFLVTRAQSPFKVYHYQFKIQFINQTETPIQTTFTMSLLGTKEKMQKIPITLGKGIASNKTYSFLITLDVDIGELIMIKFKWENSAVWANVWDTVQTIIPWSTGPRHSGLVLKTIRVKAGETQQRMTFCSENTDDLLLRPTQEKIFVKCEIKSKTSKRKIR
The test can be described thus: Hepatic lipase (HL) enzymatic assay, fluorescent substrate A10070 in DMPG vesicles. Format: biochemical. Conditions: HL partially purified from conditioned media of COS cells; compound preincubated 30 min at 37° C; read-out: HL IC50. Summed up: as §1

A value given as a limit tells only on which side of the number the result lay.

With `CO[C@@H]1CCN(C(=O)c2cccc(-c3ccc4nc(C(c5nnc(CC6(C)NC(=O)NC6=O)o5)S(C)(=O)=O)sc4c3)c2)C1` (stereo partly drawn) [Example 211, 5-({5-[methanesulfonyl(6-{3-[(3R)-3-methoxy-pyrrolidine-1-carbonyl]phenyl}-1,3-benzothiazol-2-yl)methyl]-1,3,4-oxadiazol-2-yl}methyl)-5-methyl-imidazolidine-2,4-dione], the results for the IC50 in test [1] and in test [2] were 2 nM and 575 nM, respectively.
The like results for `CS(=O)(=O)C(c1nnc(CNS(N)(=O)=O)o1)c1nc2ccc(-c3cccc(C(=O)N4CC[C@H](O)C4)c3)cc2s1` (stereo partly drawn) [Example 266, N-({5-[(6-{3-[(3S)-3-hydroxypyrrolidine-1-carbonyl]phenyl}-1,3-benzothiazol-2-yl) (methanesulfonyl)methyl]-1,3,4-oxadiazol-2-yl}methyl)aminosulfonamide] were, in that order, 13 nM and 94 nM.
The like results for `C#CCNC(=O)c1cccc(-c2ccc3nc(C(c4nnc(CNS(N)(=O)=O)o4)S(C)(=O)=O)sc3c2)c1` (centres unmarked) [Example 265, 3-{2-[methanesulfonyl({5-[(sulfamoylamino)methyl]-1,3,4-oxadiazol-2-yl})methyl]-1,3-benzothiazol-6-yl}-N-(prop-2-yn-1-yl) benzamide] were, in that order, 6 nM and 19 nM.
On to `O=C1NC(=O)C(Cc2nnc(C(c3nc4ccc(-c5ccc(C(=O)N6CCOCC6)cc5)cc4s3)S(=O)(=O)CCN3CCOCC3)o2)S1` (centres unmarked) [Example 106, 5-((5-((6-(4-(4-morpholinylcarbonyl)phenyl)-1,3-benzothiazol-2-yl)((2-(4-morpholinyl)ethyl)sulfonyl)methyl)-1,3,4-oxadiazol-2-yl)methyl)-1,3-thiazolidine-2,4-dione], for which the 50% inhibitory concentration (IC50) is less than 10 nM in test [1] and 1340 nM in test [2].
Regarding `CC(C)(C)OC(=O)NS(=O)(=O)NCc1nnc(C(c2nc3ccc(-c4ccc(C(=O)N5CCOCC5)c(Cl)c4)cc3s2)S(=O)(=O)Cc2ccccc2)o1` (centres unmarked) [Example 147, 2-methyl-2-propanyl [({5-[(benzylsulfonyl){6-[3-chloro-4-(4-morpholinylcarbonyl)phenyl]-1,3-benzothiazol-2-yl}methyl]-1,3,4-oxadiazol-2-yl}methyl)sulfamoyl] carbamate], the IC50 was 17 nM in test [1] and 626 nM in test [2].
`CC1(CS(=O)(=O)C(c2nnc(CNS(N)(=O)=O)o2)c2nc3ccc(-c4ccc(C(=O)N5CCOCC5)cc4)cc3s2)COC1` (centres unmarked) [Example 135, N-((5-((((3-methyl-3-oxetanyl)methyl)sulfonyl)(6-(4-(4-morpholinylcarbonyl)phenyl)-1,3-benzothiazol-2-yl)methyl)-1,3,4-oxadiazol-2-yl)methyl)sulfamide]: the IC50 in test [1] was less than 10 nM; in test [2], 91 nM.
Taken in the same sequence, the figures for `Cn1cc(-c2ccc3nc(C(c4nnc(CNS(N)(=O)=O)o4)S(C)(=O)=O)sc3c2)cn1` (centres unmarked) [Example 113, N-((5-((6-(1-methyl-1H-pyrazol-4-yl)-1,3-benzothiazol-2-yl)(methylsulfonyl)methyl)-1,3,4-oxadiazol-2-yl)methyl) sulfamide] were less than 10 nM and 220 nM.
Take `CS(=O)(=O)C(c1nnc(CNS(N)(=O)=O)o1)c1nc2ccc(-c3cccc(C(=O)Nc4nncs4)c3)cc2s1` (centres unmarked) [Example 256, 3-{2-[methanesulfonyl({5-[(sulfamoylamino)methyl]-1,3,4-oxadiazol-2-yl})methyl]-1,3-benzothiazol-6-yl}-N-(1,3,4-thiadiazol-2-yl)benzamide]: the IC50 came out at 2 nM in test [1] and 16 nM in test [2].
The like results for `CS(=O)(=O)NCc1nnc(C(c2nc3ccc(-c4ccc(C(=O)N5CCOCC5)cc4)cc3s2)S(C)(=O)=O)o1` (centres unmarked) [Example 173, N-((5-((Methylsulfonyl)(6-(4-(4-morpholinylcarbonyl)phenyl)-1,3-benzothiazol-2-yl)methyl)-1,3,4-oxadiazol-2-yl)methyl)methanesulfonamide] were, in that order, 35 nM and 58 nM.
As to `CNC(=O)c1cccc(-c2ccc3nc(C(c4nnc(CC5(C)NC(=O)NC5=O)o4)S(C)(=O)=O)sc3c2)c1` (centres unmarked) [Example 218, 3-{2-[methanesulfonyl({5-[(4-methyl-2,5-dioxoimidazolidin-4-yl)methyl]-1,3,4-oxadiazol-2-yl})methyl]-1,3-benzothiazol-6-yl}-N-methylbenzamide], the IC50 stood at 10 nM in test [1] and 262 nM in test [2].
`CN1CCN(C(=O)c2cccc(-c3ccc4nc(C(c5nnc(CNS(N)(=O)=O)o5)S(=O)(=O)CC5CC5)sc4c3)c2)CC1` (centres unmarked) [Example 197, N-((5-(((cyclopropylmethyl)sulfonyl)(6-(3-((4-methyl-1-piperazinyl)carbonyl)phenyl)-1,3-benzothiazol-2-yl)methyl)-1,3,4-oxadiazol-2-yl)methyl)sulfamide]: the results for the IC50 in test [1] and in test [2] were less than 10 nM and 2570 nM, respectively.
The like results for `CN1CCN(C(=O)c2cccc(-c3ccc4nc(C(c5nnc(CNS(N)(=O)=O)o5)S(C)(=O)=O)sc4c3)c2)CC1` (centres unmarked) [Example 193, N-((5-((6-(3-((4-methyl-1-piperazinyl)carbonyl)phenyl)-1,3-benzothiazol-2-yl)(methylsulfonyl)methyl)-1,3,4-oxadiazol-2-yl)methyl)sulfamide] were, in that order, less than 10 nM and 105 nM.
Consider `NS(=O)(=O)NCc1nnc(C(c2nc3ccc(-c4cccc(C(=O)NCCO)c4)cc3s2)S(=O)(=O)CCC(F)(F)F)o1` (centres unmarked) [Example 196, N-(2-hydroxyethyl)-3-(2-((5-((sulfamoylamino)methyl)-1,3,4-oxadiazol-2-yl)((3,3,3-trifluoropropyl)sulfonyl)methyl)-1,3-benzothiazol-6-yl)benzamide], for which the results for the IC50 in test [1] and in test [2] were less than 10 nM and 209 nM, respectively.
The like results for `CS(=O)(=O)C(c1nnc(CC2SC(=O)NC2=O)o1)c1nc2ccc(-c3ccc(C(=O)OCc4ccccc4)cc3)cc2s1` (centres unmarked) [Example 105, benzyl 4-(2-((5-((2,4-dioxo-1,3-thiazolidin-5-yl)methyl)-1,3,4-oxadiazol-2-yl)(methylsulfonyl)methyl)-1,3-benzothiazol-6-yl)benzoate] were, in that order, less than 10 nM and less than 10 nM.
Taken in the same sequence, the figures for `CC(C)(C)OC(=O)c1cccc(-c2ccc3nc(C(c4nnc(CC5(C)NC(=O)NC5=O)o4)S(C)(=O)=O)sc3c2)c1` (centres unmarked) [Example 203, tert-butyl 3-{2-[methanesulfonyl ({5-[(4-methyl-2,5-dioxoimidazolidin-4-yl)methyl]-1,3,4-oxadiazol-2-yl})methyl]-1,3-benzothiazol-6-yl}benzoate] were 33 nM and 2 nM.
Taken in the same sequence, the figures for `Cn1cc(-c2cc3sc(C(c4nnc(CNS(N)(=O)=O)o4)S(=O)(=O)Cc4ccccc4)nc3cc2F)cn1` (centres unmarked) [Example 158, N-((5-((benzylsulfonyl)(5-fluoro-6-(1-methyl-1H-pyrazol-4-yl)-1,3-benzothiazol-2-yl)methyl)-1,3,4-oxadiazol-2-yl)methyl) sulfamide] were less than 10 nM and 21 nM.
`CS(=O)(=O)C(c1nnc(CNS(N)(=O)=O)o1)c1nc2ccc(-c3cccc(C(=O)N4CCC4)c3)cc2s1` (centres unmarked) [Example 264, N-{[5-({6-[3-(azetidine-1-carbonyl)phenyl]-1,3-benzothiazol-2-yl} (methanesulfonyl)methyl)-1,3,4-oxadiazol-2-yl]methyl}aminosulfonamide]: the IC50 turned out to be 19 nM in test [1] and 37 nM in test [2].
The like results for `COC(=O)CCS(=O)(=O)C(c1nnc(CNS(N)(=O)=O)o1)c1nc2ccc(-c3cnn(C)c3)cc2s1` (centres unmarked) [Example 112, methyl 3-(((6-(1-methyl-1H-pyrazol-4-yl)-1,3-benzothiazol-2-yl)(5-((sulfamoylamino)methyl)-1,3,4-oxadiazol-2-yl)methyl)sulfonyl)propanoate] were, in that order, less than 10 nM and less than 10 nM.
The like results for `COCCS(=O)(=O)C(c1nnc(CNS(=O)(=O)NC(=O)OC(C)(C)C)o1)c1nc2ccc(-c3cc(F)cc(Cl)c3)cc2s1` (centres unmarked) [Example 153, tert-butyl (((5-((6-(3-chloro-5-fluorophenyl)-1,3-benzothiazol-2-yl)((2-methoxyethyl)sulfonyl)methyl)-1,3,4-oxadiazol-2-yl)methyl)sulfamoyl) carbamate] were, in that order, 19 nM and 17 nM.
